Test results reported in article PMC6271910, “Exploiting Natural Products to Build Metalla-Assemblies: The Anticancer Activity of Embelin-Derived Rh(III) and Ir(III) Metalla-Rectangles” (Molecules, 2014).
Like-named read-outs stand apart in the source and are kept apart here.

Columns and labels:
[1] = test system: DU-145 cells (prostate cancer); experiment: MTT assay, DU-145; type: cell-based, human; settings: averaged over three experiments, read-out: Half maximum inhibitory concentration (IC50), DU-145
Procedure: (§1) To understand the effect of these complexes on the proliferation of cancerous and noncancerous cells, MTT assays were carried out following the protocol reported by Wilson et al.. The noncancerous (HEK-293) and the human cancerous cell lines (DU-145, A-549 and HeLa) were grown according to the supplier’s recommendations. All cell lines were treated for 48 h at different concentrations of complexes (0.25 µM, 0.5 µM, 0.75 µM, 1 µM, 5 µM, 10 µM, 25 µM, 50 µM and 100 µM). After treatment, the number of viable cells was estimated using a MTT assay. […] Cells treated with doxorubicin in the same concentration range were considered as controls.
(§2) The anticancer activity of the complex was determined using the 3-(4,5-dimethylthiazol-2-yl)-2,5-diphenyltetrazolium bromide (MTT) assay. First 1 × 10^4 cells per well were seeded in Dulbecco’s modified Eagle’s medium (DMEM, 100 µL) supplemented with 10% fetal bovine serum in each well of 96-well microculture plates and incubated for 24 h at 37 °C in a CO2 incubator. Complexes were diluted to the desired concentrations in culture medium and added to the wells with respective vehicle control. After 48 h of incubation, MTT (10 µL, 5 mg mL^−1) was added to each well and the plates were further incubated for 4 h. Then the supernatant from each well was carefully removed, formazan crystals were dissolved in DMSO (100 µL) and absorbance at 570 nm was recorded.

[2] = test system: A-549 cells (lung cancer); experiment: MTT assay, A-549; type: cell-based, human
Procedure: as §1, §2

[3] = test system: HeLa cells (cervical cancer); experiment: MTT assay, HeLa; type: cell-based, human; settings: 48 h, averaged over three experiments, read-out: Half maximum inhibitory concentration (IC50), HeLa
Procedure: as §1, §2

CT DNA (calf-thymus DNA) = experiment: Thermal denaturation study of CT DNA; type: binding; settings: for ΔTm of CT DNA: incubation 12 h at 37 °C, PE buffer pH 7.4, complex/DNA ratio 1:1, CT DNA alone melts at 59.3 °C
Procedure: The DNA binding affinity of the synthesized complexes was evaluated through thermal denaturation studies with duplex CT DNA using a modified reported procedure. […]

[4] = test system: HEK-293 (normal human embryonic kidney cells); experiment: MTT assay, HEK-293; type: cell-based; settings: for IC50: 48 h, MTT, noncancerous cells, averaged over three experiments, read-out: Half maximum inhibitory concentration (IC50), HEK-293; for Selectivity for cancerous over noncancerous cells (HEK-293): IC50 on HEK-293 compared with cancer cell lines
Procedure: as §1, §2

A-549 cells [5] = experiment: Cell cycle assay by flow cytometry (propidium iodide); type: cell-based, human; settings: A-549, 500 nM, 24 h; for Sub G1 (%): control 1.37; for G2/M (%): control 16.37; for S (%): control 17.15; for G0/G1 (%): control 54.62
Procedure: In order to corroborate the results obtained in the MTT assays and to better understand the action of metalla-rectangles 3 and 8 on cells, the effects on the cell cycle inhibition and the interference in cell proliferations using a standard cell cycle assay were studied. The results obtained are presented in (Table 2). On analyzing the results, it was evident that the cell cycle was inhibited at the subG1 phase with both metalla-rectangles.
Flow cytometric analysis (FACS) was performed to evaluate the distribution of the cells in different cell cycle phases. A-549 cells were incubated with metalla-rectangles 3 and 8 at 500 nM concentration for 24 h. Untreated cells were considered as control sample. Untreated and treated cells were harvested, washed with PBS, fixed in ice cold 70% ethanol and stained with propidium iodide (Sigma Aldrich, St. Louis, MO, USA). Cell cycle was performed by using Becton Dickinson FACS Caliber (Franklin Lakes, NJ, USA).

A-549 cells [6] = experiment: Apoptosis assay (annexin-V/propidium iodide flow cytometry); type: cell-based, human; settings: A-549, 500 nM, 48 h; for Early apoptotic (%): control 0.84; for Late apoptotic (%): control 6.18; for Necrotic (%): control 14.61; for Living cells (%): control 78.37; for Total apoptotic cells (%): early + late apoptotic, control 7.02
CT DNA [7] = experiment: CD spectroscopic study with CT DNA; type: binding, calf; settings: CT DNA/complex 1:0.5 to 1:1, KBPES buffer pH 7.0, 25 °C
Procedure: Circular dichroism (CD) studies can provide information on the changes in the DNA conformation upon interactions with small molecules. These changes in the DNA topology are giving useful information on the nature of the DNA-complex interactions. […] These bands are characteristic to the profile of the B form of DNA [24].
Circular dichroism (CD) experiments were performed using a Jasco 815 CD spectropolarimeter (Jasco, Tokyo, Japan). CD spectra were recorded from 230 to 300 nm to find the conformational changes in the CT DNA after interaction with the complexes. For each CD experiment, CT DNA (15 × 10^‒6 M) was used initially. Further, for the characterization of complex‒DNA interaction, the CD spectra were recorded in 1:0.5 and 1:1 CT DNA/complex molar ratios. CD titrations were performed in KBPES buffer (30 mM Potassium Phosphate with 100 mM KCl, pH 7.0) at 25 °C. Each spectrum was recorded three times and the average of three scans was taken.

CT DNA [8] = experiment: UV-visible spectroscopic titrations with CT DNA; type: binding, calf; settings: 25 µM complex, KBPES buffer pH 7.0, 25 °C
From the text: The mode of the DNA-complex interaction was further studied by UV-visible experiments. The results from these studies will indicate the mode of DNA-complex interaction. The UV-visible spectra of metalla-rectangles 4, 6 and 8, the iridium derivatives, show a prominent absorption band at 210 nm. […] The hyperchromicity of the Soret band of the metalla-rectangles was more evident at 210 nm. A continuous hyperchromicity of the Soret band upon addition of metalla-rectangles 4, 6 and 8 to a CT DNA solution is an indication of electrostatic binding or partial unwinding of the CT DNA [27].
UV-Visible spectroscopic titrations were performed using an ABI Lambda 40 UV/Vis spectrophotometer (Foster City, CA, USA) at 25 °C using 1 cm path length quartz cuvettes. Stock solutions of complex (25 µM) was prepared in DMSO and CT DNA (25 µM) were prepared in KBPES buffer (30 mM Potassium Phosphate with 100 mM KCl, pH 7.0). The quartz cells were thoroughly cleaned with distilled water and followed by nitric acid (~0.1 N) after each experiment. UV-visible absorption titrations were done by adding CT DNA stock solution (25 µM) in KBPES buffer (30 mM Potassium Phosphate with 100 mM KCl, pH 7.0) to the quartz cuvette containing approximately 25 µM complex solutions. Preparation of CT DNA and complex solutions was done on the same day as the experiment. Titrations were performed until the band remained at a fixed wavelength upon successive additions of CT DNA.

A-549 cells [9] = experiment: Mitochondrial outer membrane permeability assay (MitoTracker Red, confocal microscopy); type: cell-based, human; settings: A-549, 500 nM
Procedure: The aggregation of mitochondria was reported to occur when cells enter into apoptosis, and accordingly led to the release of cytochrome c into the cytosol, which in turn triggered the cascade pathway to apoptosis. From Figure 6, it was clear that mitochondria were getting bundled with metalla-rectangle 3, indicating the onset of apoptosis in A-549 cells.
Compound [3](CF3SO3)4 (500 nM) with treated and untreated A-549 cells were incubated in a medium containing MitoTracker Red™ (50 nM) for 30 min at culture conditions recommended by the supplier. Cells were washed and fixed with 4% paraformaldehyde for 15 min, and permeabilized with Triton X-100 (0.1%) for each 10 min. The cover glasses after PBS wash were mounted on to the glass slides, sealed with nail polish and observed using laser scanning confocal microscopy (Leica TCS SP5, Heidelberg, Germany). The MitoTracker Red™ was excited using 543 nm laser source and the fluorescence emission signals were collected at 570 nm to 635 nm.

[10] = 48 h, averaged over three experiments, read-out: Half maximum inhibitory concentration (IC50), A-549
[11] = 48 h, read-out: IC50 in A-549 cells

| Molecule | ΔTm of CT DNA (CT DNA (calf-thymus DNA)) [°C] | IC50 ([1]; 48 h) [µM] | IC50 [2, 10] [µM] | IC50 [3] [µM] | IC50 [4] [µM] | Change of the absorption (Soret) band at 210 nm on addition of CT DNA (CT DNA [8]) | other results |
| --- | --- | --- | --- | --- | --- | --- | --- |
| COc1cccc2c1C(=O)c1c(O)c3c(c(O)c1C2=O)C[C@@](O)(C(=O)CO)C[C@@H]3O[C@H]1C[C@H](N)[C@H](O)[C@H](C)O1 [doxorubicin, reference compound] | 9.5 | – | – | – | – | – | IC50 ([1]; Homo sapiens, DU-145, 48 h): 1.28 ± 0.2 µM; IC50 ([2]; Homo sapiens, A549, 48 h, averaged over three experiments, read-out: Half maximum inhibitory concentration (IC50), A-549): 0.85 ± 0.1 µM; IC50 ([3]; Homo sapiens, HeLa): 0.91 ± 0.2 µM |
| [(η^5-C5Me5)4Ir4(μ2-1,2-bis(4-pyridyl)ethylene-ĸN)2(μ4-C6HRO4-ĸO)2](CF3SO3)4 [[8](CF3SO3)4] | 12.7 | 0.72 ± 0.2 | 0.67 ± 0.4 | 0.59 ± 0.2 | 70.8 ± 0.4 | continuous increase of its intensity | IC50 [2, 11]: ~0.67 µM; Selectivity for cancerous over noncancerous cells (HEK-293) [4]: two orders of magnitude; Sub G1 (%) (A-549 cells [5]): 11.98%; G2/M (%) (A-549 cells [5]): 3.49%; S (%) (A-549 cells [5]): 7.95%; G0/G1 (%) (A-549 cells [5]): 66.54%; Early apoptotic (%) (A-549 cells [6]): 1.58%; Late apoptotic (%) (A-549 cells [6]): 13.04%; Necrotic (%) (A-549 cells [6]): 22.92%; Living cells (%) (A-549 cells [6]): 62.46%; Total apoptotic cells (%) (A-549 cells [6]): 14.62%; Change of the positive CD band of CT DNA (275 nm) (CT DNA [7]): higher hyperchromicity |
| [(η^5-C5Me5)4Ir4(μ2-4,4'-bipyridine-ĸN)2(μ4-C6HRO4-ĸO)2](CF3SO3)4 [[6](CF3SO3)4] | 7.9 | 2.53 ± 0.2 | 0.84 ± 0.1 | 1.04 ± 0.3 | 40.3 ± 0.4 | continuous increase of its intensity | – |
| [(η^5-C5Me5)4Ir4(μ2-pyrazine-ĸN)2(μ4-C6HRO4-ĸO)2](CF3SO3)4 [[4](CF3SO3)4] | 6.8 | 16 ± 0.4 | 3.18 ± 0.2 | 4.16 ± 0.3 | 31.2 ± 0.5 | continuous increase of its intensity | – |
| [(η^5-C5Me5)4Rh4(μ2-1,2-bis(4-pyridyl)ethylene-ĸN)2(μ4-C6HRO4-ĸO)2](CF3SO3)4 [[7](CF3SO3)4] | 8.2 | 4.98 ± 0.3 | 2.01 ± 0.2 | 5.75 ± 0.2 | 62.1 ± 0.3 | same hyperchromicity | – |
| [(η^5-C5Me5)4Rh4(μ2-4,4'-bipyridine-ĸN)2(μ4-C6HRO4-ĸO)2](CF3SO3)4 [[5](CF3SO3)4] | 7.3 | 4.67 ± 0.2 | 0.67 ± 0.1 | 1.01 ± 0.3 | 41.3 ± 0.4 | same hyperchromicity | – |
| [(η^5-C5Me5)4Rh4(μ2-pyrazine-ĸN)2(μ4-C6HRO4-ĸO)2](CF3SO3)4 [[3](CF3SO3)4] | 12.9 | 0.54 ± 0.2 | 0.5 ± 0.1 | 0.52 ± 0.2 | 62 ± 0.5 | same hyperchromicity | IC50 ([1]; 48 h, listed as [3]^4+): 0.5 µM; IC50 [2, 11]: ~0.5 µM; IC50 ([3]; listed as [3]^4+): 0.5 µM; Selectivity for cancerous over noncancerous cells (HEK-293) [4]: two orders of magnitude; Melting temperature of CT DNA in the presence of the compound (CT DNA (calf-thymus DNA); CT DNA alone 59.3 °C): 72.2 °C; Sub G1 (%) (A-549 cells [5]): 31.97%; G2/M (%) (A-549 cells [5]): 1.35%; S (%) (A-549 cells [5]): 2.87%; G0/G1 (%) (A-549 cells [5]): 56.29%; Early apoptotic (%) (A-549 cells [6]): 4.73%; Late apoptotic (%) (A-549 cells [6]): 23.30%; Necrotic (%) (A-549 cells [6]): 11.57%; Living cells (%) (A-549 cells [6]): 60.40%; Total apoptotic cells (%) (A-549 cells [6]): 28.03%; Total apoptotic cells (%) (A-549 cells [6]; listed as 3): about 28.03%; Effect on mitochondria distribution (MitoTracker Red) (A-549 cells [9]): aggregations of mitochondria were observed; Change of the positive CD band of CT DNA (275 nm) (CT DNA [7]): slight hyperchromicity |
